{"source": "patent US7649013B2", "about": "“Methods of protecting against radiation injury” (priority 2003, dated 2010)", "key": {"[1]": {"system": "C57BL/6J inbred strain female mice", "test": "Survival after 8 Gy whole body γ-irradiation, intraperitoneal 40 mg/kg at varying time points (Example 5)", "assay_type": "in vivo", "conditions": "for No. of animals surviving at 68 days post-irradiation: 8 animals; for Death rate (%): 68 days", "experimental": "(§1) β-lapachone is prepared at 10 mg/ml in 40% hydroxypropyl-beta-cyclodextrin (HPBCD).\n(§2) C57BL/6J inbred strain female mice (4-5 weeks old) are used. Animals are maintained in a climate-controlled animal facility.\nThe animals are injected intraperitoneally with β-lapachone (40 mg/kg body weight) either 0.5 hour, 1 hour, or 4 hours before irradiation, or 10 minutes or 1 hour after irradiation.\n(§3) Whole body irradiation of animals with 8 Gy of γ-rays is carried out in air at room temperature in a gamma chamber (Gammacell 40 Exactor) with a dose-rate of 1.05 Gy/min. This radiation dose is within the range of equivalent human exposures predicted in many scenarios of radiologic or nuclear terrorist attack.\nMice are divided in following groups (each Group comprises eight mice receiving identical treatment):\nGroup III: Mice are injected with β-lapachone 40 mg/kg body weight 4 hours before radiation.\nGroup IV: Mice are injected with β-lapachone 40 mg/kg body weight 1 hour before radiation.\nGroup V: Mice are injected with β-lapachone 40 mg/kg body weight 0.5 hours before radiation.\nGroup VI: Mice are injected with β-lapachone 40 mg/kg body weight 10 minutes after radiation.\nGroup VII: Mice are injected with β-lapachone 40 mg/kg body weight 1 hour after radiation.\n(§4) Animals are irradiated with 8 Gy at 1.05 Gy/min dose-rate. After irradiation mice are returned to their cage and observed on a regular basis. Exposure to γ-rays causes lethality in animals. Importantly, treatment with β-lapachone, especially at a level of 40 mg/kg either 4, 1, or 0.5 hours prior to irradiation, diminishes the death rate."}, "[2]": {"system": "C57BL/6J inbred strain female mice", "test": "Quantitative spleen cellularity after whole body irradiation, trypan blue exclusion count (Example 7b)", "assay_type": "in vivo", "conditions": "40 mg/kg i.p. 0.5 hour before 8 Gy; day five and eight; P=0.00035", "experimental": "Spleen cellularity is quantitatively assessed following whole body gamma irradiation in mice, with and without pretreatment with β-lapachone, as follows. β-lapachone is prepared at 10 mg/ml in 40% hydroxypropyl-beta-cyclodextrin (HPBCD). C57BL/6J inbred strain female mice (4-5 weeks old) are organized into three groups of six mice each: Group I mice receive no radiation, no β-lapachone, and no carrier; Group II mice receive radiation and are injected with carrier (40% HPBCD 4 ml/kg body weight); and Group III mice are injected intraperitoneally at 0.5 hour before irradiation with β-lapachone (40 mg/kg body weight). […] Three mice in each of Groups I, II, and III are sacrificed on day five following irradiation, and a quantitative analysis of splenic cellularity is performed for each. The remaining mice are sacrificed on day eight following irradiation, and a quantitative analysis of splenic cellularity is performed for each.\nFor quantitative analysis for splenic cellularity, spleens are processed into single cell suspensions and erythrocytes are lysed in 2 ml lysis buffer (0.01 M KHCO3, 0.154 M NH4Cl, 0.01 mM EDTA). The remaining leukocytes are washed, suspended and counted in a hemacytometer using the trypan blue exclusion method."}, "[3]": {"system": "C57BL/6J inbred strain female mice", "test": "Survival after 8 Gy whole body γ-irradiation, oral 200 mg/kg at varying time points before (Example 6)", "assay_type": "in vivo", "conditions": "for No. of animals surviving at 20 days post-irradiation: 10 animals; for Death rate (%): 20 days", "experimental": "as §1, §2\nβ-lapachone (200 mg/kg body weight) is orally administered to animals at either 0.5 hour, 1 hour, 2 hours, 4 hours or 6 hours before irradiation.\nas §3, with “Exactor), at” for “Exactor) with”, “attack. […]” for “attack.”\nGroup III: β-lapachone (200 mg/kg body weight) is orally administered to mice 6 hours before radiation.\nGroup IV: β-lapachone (200 mg/kg body weight) is orally administered to mice 4 hours before radiation.\nGroup V: β-lapachone (200 mg/kg body weight) is orally administered to mice 2 hours before radiation.\nGroup VI: β-lapachone (200 mg/kg body weight) is orally administered to mice 1 hour before radiation.\nGroup VII: β-lapachone (200 mg/kg body weight) is orally administered to mice 0.5 hour before radiation.\nas §4, with “200” for “40”, “orally at one hour” for “either 4, 1, or 0.5 hours”"}, "[4]": {"system": "E2F1 in normal colon cells (NCM460)", "test": "E2F1 level in whole cell extracts, SDS/PAGE and enhanced chemiluminescence, normal colon cells", "assay_type": "cell-based, human", "conditions": "NCM460, 2 μM, 20 minute to 4 hour exposures", "experimental": "Human colon cancer cells (SW480) and normal colon cells (NCM460) are treated with β-lapachone at a concentration of 2 μM and are harvested after 20 minute, 1 hour, 2 hour, or 4 hour exposures. Whole cell extracts are prepared and resolved by SDS/PAGE. An enhanced chemiluminescence assay system (Amersham Pharmacia) is used to determine the E2F1 level. Monoclonal antibody against […] is obtained from Santa Cruz Biotechnology (Santa Cruz, Calif.). […] Elevation of E2F1 following exposure to β-lapachone persists through cell death in cancer cells."}, "[5]": {"system": "rats", "conditions": "p.o. daily for one month; cited from earlier work"}, "[6]": {"system": "dogs", "conditions": "p.o. daily for one month; cited from earlier work"}, "[7]": {"conditions": "40 mg/kg i.p. 10 min after Radiation 8 Gy"}, "[8]": {"conditions": "40 mg/kg i.p. 0.5 hr before Radiation 8 Gy"}, "[9]": {"conditions": "40 mg/kg i.p. 1 hr after Radiation 8 Gy"}, "[10]": {"conditions": "40 mg/kg i.p. 1 hr before Radiation 8 Gy"}, "[11]": {"conditions": "40 mg/kg i.p. 4 hr before Radiation 8 Gy"}, "[12]": {"conditions": "200 mg/kg p.o. 0.5 hr before Radiation 8 Gy"}, "[13]": {"conditions": "200 mg/kg p.o. 1 hr before Radiation 8 Gy"}, "[14]": {"conditions": "200 mg/kg p.o. 2 hr before Radiation 8 Gy"}, "[15]": {"conditions": "200 mg/kg p.o. 4 hr before Radiation 8 Gy"}, "[16]": {"conditions": "200 mg/kg p.o. 6 hr before Radiation 8 Gy"}}}
{"smiles": "CC1(C)CCC2=C(O1)c1ccccc1C(=O)C2=O", "note": "[β-lapachone, 3,4-dihydro-2,2-dimethyl-2H-naphtho[1,2-b]pyran-5,6-dione]", "values": [{"measurement": "Median survival time", "setting": "[1]; [7]", "result": 14, "unit": "days"}, {"measurement": "No. of animals surviving at 68 days post-irradiation", "setting": "[1]; [7]", "result": 0}, {"measurement": "Death rate (%)", "setting": "[1]; [7]", "result": 100, "unit": "%"}, {"measurement": "Median survival time", "setting": "[1]; 40 mg/kg i.p. 0.5 hr before Radiation 8 Gy (no death)", "result": ">68", "unit": "days"}, {"measurement": "No. of animals surviving at 68 days post-irradiation", "setting": "[1]; [8]", "result": 8}, {"measurement": "Death rate (%)", "setting": "[1]; [8]", "result": 0, "unit": "%"}, {"measurement": "Median survival time", "setting": "[1]; [9]", "result": 16, "unit": "days"}, {"measurement": "No. of animals surviving at 68 days post-irradiation", "setting": "[1]; [9]", "result": 0}, {"measurement": "Death rate (%)", "setting": "[1]; [9]", "result": 100, "unit": "%"}, {"measurement": "Median survival time", "setting": "[1]; [10]", "result": 68, "unit": "days"}, {"measurement": "No. of animals surviving at 68 days post-irradiation", "setting": "[1]; [10]", "result": 4}, {"measurement": "Death rate (%)", "setting": "[1]; [10]", "result": 50, "unit": "%"}, {"measurement": "Median survival time", "setting": "[1]; [11]", "result": 21, "unit": "days"}, {"measurement": "No. of animals surviving at 68 days post-irradiation", "setting": "[1]; [11]", "result": 2}, {"measurement": "Death rate (%)", "setting": "[1]; [11]", "result": 75, "unit": "%"}, {"measurement": "Temporal survival pattern (FIG. 6)", "setting": "[1]; 40 mg/kg i.p. at 0.5, 1.0 or four hours prior to 8 Gy, vs control decline at 16-20 days", "result": "delayed this early decline in survival"}, {"measurement": "Splenic cellularity, quantitative (FIG. 9)", "setting": "[2]", "result": "significantly preserved cellularity"}, {"measurement": "Median survival time", "setting": "[3]; [12]", "result": 10, "unit": "days"}, {"measurement": "No. of animals surviving at 20 days post-irradiation", "setting": "[3]; [12]", "result": 0}, {"measurement": "Death rate (%)", "setting": "[3]; [12]", "result": 100, "unit": "%"}, {"measurement": "Survival of the treated mice at day 50 post irradiation (FIG. 7)", "setting": "[3]; 200 mg/kg p.o. 1 hour prior to 8 Gy", "result": "more than 30%"}, {"measurement": "Median survival time", "setting": "[3]; [13]", "result": 18, "unit": "days"}, {"measurement": "No. of animals surviving at 20 days post-irradiation", "setting": "[3]; [13]", "result": 3}, {"measurement": "Death rate (%)", "setting": "[3]; [13]", "result": 70, "unit": "%"}, {"measurement": "Median survival time", "setting": "[3]; [14]", "result": 10, "unit": "days"}, {"measurement": "No. of animals surviving at 20 days post-irradiation", "setting": "[3]; [14]", "result": 0}, {"measurement": "Death rate (%)", "setting": "[3]; [14]", "result": 100, "unit": "%"}, {"measurement": "Median survival time", "setting": "[3]; [15]", "result": 14, "unit": "days"}, {"measurement": "No. of animals surviving at 20 days post-irradiation", "setting": "[3]; [15]", "result": 0}, {"measurement": "Death rate (%)", "setting": "[3]; [15]", "result": 100, "unit": "%"}, {"measurement": "Median survival time", "setting": "[3]; [16]", "result": 18, "unit": "days"}, {"measurement": "No. of animals surviving at 20 days post-irradiation", "setting": "[3]; [16]", "result": 1}, {"measurement": "Death rate (%)", "setting": "[3]; [16]", "result": 90, "unit": "%"}, {"measurement": "E2F1 level", "setting": "[4]", "result": "not in similarly treated normal human colon cells"}, {"measurement": "Maximum tolerated dose", "setting": "[5]", "result": 200, "unit": "mg/kg"}, {"measurement": "Maximum tolerated dose", "setting": "[6]", "result": 100, "unit": "mg/kg"}]}
